Results taken from article PMC3548330 (Bioconjugate chemistry, 2012).
≈ marks a conversion by molar mass, not a printed value. Like-named read-outs stand apart in the source and are kept apart here.

Experiments:
[1] = system: M. tuberculosis; conditions: cited from earlier work
[2] = system: M. tuberculosis inside macrophages; conditions: 100 µM concentration; cited from earlier work
[3] = system: synthesis of TDM; conditions: cited from earlier work
[4] = biological target: Ag85C (Mycobacterium tuberculosis, UniProt P9WQN9); experiment: 4-methylumbelliferyl butyrate; assay type: biochemical
[5] = system: Mycobacterium aurum; conditions: surrogate for Mycobacterium tuberculosis; cited from earlier work
[6] = system: Ag85s; conditions: screening of the NIH Clinical Collection; cited from earlier work
[7] = system: M. smegmatis; conditions: cited from earlier work
[8] = 600 nM Ag85C, 10 mM trehalose, 100 µM 4-MUB, 37 °C, inhibitor 20-320 µM

Chain of Ag85C (P9WQN9 46-340): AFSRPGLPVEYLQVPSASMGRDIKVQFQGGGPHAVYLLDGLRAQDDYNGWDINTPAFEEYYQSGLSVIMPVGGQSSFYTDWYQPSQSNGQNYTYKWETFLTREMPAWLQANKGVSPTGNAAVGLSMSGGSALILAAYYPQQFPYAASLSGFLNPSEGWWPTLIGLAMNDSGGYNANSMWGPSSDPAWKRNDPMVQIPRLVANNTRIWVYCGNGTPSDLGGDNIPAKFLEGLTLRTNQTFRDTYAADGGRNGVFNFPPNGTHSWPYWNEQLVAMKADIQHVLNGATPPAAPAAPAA

CCCC1CCc2c(sc(N)c2C#N)C1 (centres unmarked) [Compound I3-AG85, 2-amino-6-propyl-4,5,6,7-tetrahydro-1-benzothiophene-3-carbonitrile]
concentration inhibiting growth of MDR and XDR strains ([1]; 7 MDR and 3 XDR M. tuberculosis strains): ≤ 200 µM
MIC ([1]; M. tuberculosis): 100 µg/mL (≈ 454 µM)
survival of M. tuberculosis inside macrophages [2]: reduced survival
inhibition of the synthesis of TDM [3]: inhibit the synthesis of TDM

CCOC(=O)c1c(NC(=O)C(CC)SC[C@H]2O[C@H](OC)[C@@H](O)[C@@H]2O)sc2c1CCCC2 (stereo partly drawn) [Compound 13c, Ethyl 2-(methyl 5-thio-α-D-arabinofuranoside-5-S-yl)butamido-4,5,6,7-tetrahydrobenzo[b]thiophene-3-carboxylate]
Ki [4, 8]: 71 µM

CO[C@H]1O[C@H](CSCC(=O)Nc2sc3c(c2C#N)CCCC3)[C@@H](O)[C@@H]1O [Compound 13b, N-(3-cyano-4,5,6,7-tetrahydrobenzo[b]thiophen-2-yl)-2-(methyl 5-thio-α-D-arabinofuranoside-5-S-yl)acetamide]
Ki [4, 8]: 34.8 µM

[N-]=[N+]=NC[C@H]1O[C@H](O[C@H]2O[C@H](CO)[C@@H](O)[C@H](O)[C@H]2O)[C@H](O)[C@@H](O)[C@@H]1O [6-azido-6-deoxytrehalose]
growth inhibition of Mycobacterium aurum [5]: completely inhibit the growth

O=c1c2ccccc2[se]n1-c1ccccc1 [ebselen]
inhibition of Ag85s [6]: nM inhibitor

COC1O[C@H](CSCCn2c(=O)[nH]c3sc4c(c3c2=O)CCCC4)[C@@H](O)[C@@H]1O (stereo partly drawn) [Compound 14, Methyl 5-S-[2-(2,4-dioxo-1,4,5,6,7,8-hexahydro[1]benzothieno[2,3-d]-pyrimidin-3(2H)-yl)ethyl]-5-thioarabinofuranoside]
Ki [4]: 47.1 µM

CCOC(=O)c1c(NC(=O)CSCC2OC(OC)C(O)C2O)sc2c1CCCC2 [Compound 13a, Ethyl 2-(methyl 5-thio-α-D-arabinofuranoside-5-S-yl)acetamido-4,5,6,7-tetrahydrobenzo[b]thiophene-3-carboxylate]
Ki [4, 8]: 18.2 µM

N#Cc1c(N)sc2c1CCCC2 [Compound 1b, 2-Amino-4,5,6,7-tetrahydrobenzo[b]thiophene-3-carbonitrile]
MIC [7]: 50 to 100 µg/mL
